The assay deals with 786-O (renal cell carcinoma) cells. In words: Cell viability (CellTiter Glo) assay, inhibition of 786-O cell proliferation. The assay is classed as cell-based. The following applies: read-out: IC50, inhibition of 786-O cell proliferation.
Where [1] appears, read: Homo sapiens, 786-0, 786-O cells, 72 hours, CellTiter Glo.

Among the data in patent US20250304571A1, “BIOLOGICALLY ACTIVE COMPOUNDS AND METHODS THEREOF” (Suzhou Keen Therapeutics Co., Ltd., priority 2022, published 2025) are IC50 values, retold here.

The structures appear in SMILES notation. pIC50: −log10 of the molar value. Like-named read-outs stand apart in the source and are kept apart here. A value given as a limit tells only on which side of the number the result lay.

With `C[C@@H]1CN(c2ccc(N3C(=O)C4(CCCC4)c4c(N)nc(COC(=N)N5CCC[C@@H]5C(F)(F)F)nc43)cn2)C[C@H](C)O1` [Compound E46], where the note is “Homo sapiens, 786-0, 72 h”, the pIC50 was greater than 7.00.
Consider `COc1cc(N2C[C@@H](C)O[C@@H](C)C2)ncc1N1C(=O)C(C)(C)c2c(N)nc(COC(=N)N3CCC[C@@H]3C(F)(F)F)nc21` [Compound E47], for which the pIC50 under setting [1] was 6.30 to 7.00.
`CC1(C)C(=O)N(c2ccc(N3CCOCC3)cc2)c2nc(COC(=N)N3CCC[C@@H]3C(F)(F)F)nc(NCC(F)(F)F)c21` [Compound E48]: the pIC50 under setting [1] was greater than 7.00.
Still for that read-out and setting: the result for `CC1(C)C(=O)N(c2ccc(N3CCCCC3)cc2)c2nc(COC(=N)N3CCC[C@@H]3C(F)(F)F)nc(NCC(F)(F)F)c21` [Compound E49] reads greater than 7.00; that for `C[C@@H]1CN(c2ccc(N3C(=O)C(C)(C)c4c(NCC(F)(F)F)nc(COC(=N)N5CCC[C@@H]5C(F)(F)F)nc43)cc2F)C[C@H](C)O1` [Compound E50], greater than 7.00; that for `CC1(C)C(=O)N(c2cc(F)c3c(c2)CCCO3)c2nc(COC(=N)N3CCC[C@@H]3C(F)(F)F)nc(NCC(F)(F)F)c21` [Compound E51], greater than 7.00.
On to `CC1(C)C(=O)N(c2ccc(N3CCOCC3)cc2)c2nc(COC(=N)N3CC(F)C[C@H]3C(F)(F)F)nc(N)c21` (some centres unmarked) [Compound E52], for which the pIC50 under setting [1] was 6.30 to 7.00.
Same read-out and setting: the result for `N=C(OCc1nc(NC2CC2)c2c(n1)N(c1ccc(N3CCOCC3)cc1)C(=O)C21CCCC1)N1CCC[C@@H]1C(F)(F)F` [Compound E53, (4′-(cyclopropylamino)-7′-(4-morpholinophenyl)-6′-oxo-6′,7′-dihydrospiro[cyclopentane-1,5′-pyrrolo[2,3-d]pyrimidin]-2′-yl)methyl (R)-2-(trifluoromethyl)pyrrolidine-1-carbimidate] reads greater than 7.00; that for `CN(C)c1nc(COC(=N)N2CCC[C@@H]2C(F)(F)F)nc2c1C(C)(C)C(=O)N2c1ccc(N2CCOCC2)cc1` [Compound E54], greater than 7.00.
On the same count and under the same terms, with `N=C(OCc1nc(NC2CC2)c2c(n1)N(c1cc(F)c3c(c1)CCO3)C(=O)C21CCCCC1)N1CCC[C@@H]1C(F)(F)F` [Compound E55] the figure was greater than 7.00; with `C=CCNc1nc(COC(=N)N2CCC[C@@H]2C(F)(F)F)nc2c1C(C)(C)C(=O)N2c1ccc(N2CCOCC2)cc1` [Compound E56], greater than 7.00.
On to `N=C(OCc1ncc2c(n1)N(c1ccc(N3CCOCC3)cc1)C(=O)C21CCCCC1)N1CCC[C@@H]1C(F)(F)F` [Compound E58], for which, under setting [1], the pIC50 was greater than 7.00.
Still for that read-out and setting: with `CC1(C)C(=O)N(c2cnc(N3CCC(F)(F)CC3)nc2)c2nc(COC(=N)N3CCC[C@@H]3C(F)(F)F)nc(NC3CC3)c21` [Compound E59] the figure was greater than 7.00; with `N=C(OCc1nc(NCC(F)(F)F)c2c(n1)N(c1cc(F)c3c(c1)CCO3)C(=O)C21CCCC1)N1CCC[C@@H]1C(F)(F)F` [Compound E61], greater than 7.00.
On the same count and under the same terms, the result for `N=C(OCc1nc(N)c2c(n1)N(c1cnc(C3CC3)nc1)C(=O)C21CCCC1)N1CCC[C@@H]1C(F)(F)F` [Compound E63] reads greater than 7.00; that for `CC1(C)C(=O)N(c2cc(F)c3c(c2)CCO3)c2nc(COC(=N)N3CCC[C@@H]3C(F)(F)F)nc(N)c21` [Compound E65], greater than 7.00.
As to `CC1(C)C(=O)N(c2ccc3c(c2)C2(CCO3)CC2)c2nc(COC(=N)N3CCC[C@@H]3C(F)(F)F)nc(NCC(F)(F)F)c21` [Compound E66], the pIC50 (786-O cells, 72 hours, CellTiter Glo) was greater than 7.00.
Take `CNc1nc(COC(=N)N2CCC[C@@H]2C(F)(F)F)nc2c1C(C)(C)C(=O)N2c1cnc2c(C(C)C)cnn2c1` [Compound E67]: the pIC50 under setting [1] was greater than 7.00.
Same read-out and setting: the result for `CNc1nc(COC(=N)N2CCC[C@@H]2C(F)(F)F)nc2c1C(C)(C)C(=O)N2c1ccc2c(c1)CCO2` [Compound E68] reads greater than 7.00; that for `CNc1nc(COC(=N)N2CCC[C@@H]2C(F)(F)F)nc2c1C(C)(C)C(=O)N2c1ccc(N2C[C@@H](C)O[C@@H](C)C2)nc1` [Compound E69], greater than 7.00.
Still for that read-out and setting: the result for `CC1(C)C(=O)N(c2ccc(N3CCC4(CC3)CC4)nc2)c2nc(COC(=N)N3CCC[C@@H]3C(F)(F)F)nc(N)c21` [Compound E70] reads greater than 7.00; that for `N=C(OCc1nc(NC2CC2)c2c(n1)N(c1ccc(N3CCOCC3)cc1)C(=O)C21CCCCC1)N1CCC[C@@H]1C(F)(F)F` [Compound E71], greater than 7.00.
The same measure, in the same setting: the result for `N=C(OCc1ncc2c(n1)N(c1ccc(N3CCOCC3)cc1)C(=O)C21CCCC1)N1CCC[C@@H]1C(F)(F)F` [Compound E72] reads greater than 7.00.
On to `N=C(OCc1nc(NC2CC2)c2c(n1)N(c1ccc(N3CCOCC3)c(F)c1)C(=O)C21CCCCC1)N1CCC[C@@H]1C(F)(F)F` [Compound E73], for which the pIC50 under setting [1] is greater than 7.00.
Consider `CC1(C)C(=O)N(c2ccc(N3CCOCC3)cc2)c2nc(COC(=N)N3CCC[C@@H]3C(F)(F)F)nc(N3CC(F)(F)C3)c21` [Compound E74], for which the pIC50 under setting [1] was 6.30 to 7.00.
Still for that read-out and setting: with `CCN(CC)c1ncc(N2C(=O)C3(CCCC3)c3c(N)nc(COC(=N)N4CCC[C@@H]4C(F)(F)F)nc32)cn1` [Compound E75] the figure was greater than 7.00.
Same read-out and setting: the result for `CCN(CC)c1ncc(N2C(=O)C3(CCCC3)c3c(NC(C)C)nc(COC(=N)N4CCC[C@@H]4C(F)(F)F)nc32)cn1` [Compound E76] reads 6.30 to 7.00; that for `COc1cc(N2CCOCC2)ccc1N1CC(C)(C)c2c(N)nc(COC(=N)N3CCC[C@@H]3C(F)(F)F)nc21` [Compound E77], greater than 7.00.
On the same count and under the same terms, with `N=C(OCc1nc(N)c2c(n1)N(c1cnc(N3CCOCC3)nc1)C(=O)C21CCCC1)N1CCC[C@@H]1C(F)(F)F` [Compound E78] the figure was greater than 7.00.
For the compound `CC(C)Nc1nc(COC(=N)N2CCC[C@@H]2C(F)(F)F)nc2c1C1(CCCC1)C(=O)N2c1cnc(N2CCOCC2)nc1` [Compound E79], the pIC50 under setting [1] was 6.30 to 7.00.
`CNc1nc(COC(=N)N2CCC[C@@H]2C(F)(F)F)nc2c1C1(CCCC1)C(=O)N2c1cnc(N2CCOCC2)nc1` [Compound E80]: the pIC50 under setting [1] was greater than 7.00.
On the same count and under the same terms, the result for `CC(C)Nc1nc(COC(=N)N2CCC[C@@H]2C(F)(F)F)nc2c1C1(CCCC1)C(=O)N2c1cnc(N2CCC(F)(F)C2)nc1` [Compound E81] reads greater than 7.00; that for `N=C(OCc1nc(N)c2c(n1)N(c1cnc(N3CCC(F)(F)C3)nc1)C(=O)C21CCCC1)N1CCC[C@@H]1C(F)(F)F` [Compound E82], greater than 7.00.
As to `CNc1nc(COC(=N)N2CCC[C@@H]2C(F)(F)F)nc2c1C1(CCCC1)C(=O)N2c1cnc(N2CCC(F)(F)C2)nc1` [Compound E83], under setting [1], the pIC50 is greater than 7.00.
On the same count and under the same terms, the result for `N=C(OCc1nc(N)c2c(n1)N(c1cnc(N3CCC(F)(F)CC3)nc1)C(=O)C21CCCC1)N1CCC[C@@H]1C(F)(F)F` [Compound E84] reads greater than 7.00; that for `N=C(OCc1nc(N)c2c(n1)N(c1cnc(N3CC(F)(F)C3)nc1)C(=O)C21CCCC1)N1CCC[C@@H]1C(F)(F)F` [Compound E85], greater than 7.00.
Consider `CNc1nc(COC(=N)N2CCC[C@@H]2C(F)(F)F)nc2c1C1(CCCC1)C(=O)N2c1cnc(N2CC(F)(F)C2)nc1` [Compound E86], for which the pIC50 under setting [1] was greater than 7.00.
Still for that read-out and setting: with `CC1(C)C(=O)N(c2cnc(C3CCOCC3)nc2)c2nc(COC(=N)N3CCC[C@@H]3C(F)(F)F)nc(NC3CCC3)c21` [Compound E89] the figure was 5.30 to 6.30.
Still for that read-out and setting: the result for `N=C(OCc1nc(N)c2c(n1)N(c1cnc(C(F)(F)F)nc1)C(=O)C21CCCC1)N1CCC[C@@H]1C(F)(F)F` [Compound E90] reads 6.30 to 7.00; that for `N=C(OCc1nc(NC2CCC2)c2c(n1)N(c1ccc(N3CCOCC3)cc1)C(=O)C21CCCC1)N1CCC[C@@H]1C(F)(F)F` [Compound E91], greater than 7.00; that for `C[C@@H]1CN(c2ncc(N3C(=O)C4(CCCC4)c4c(NC5CCC5)nc(COC(=N)N5CCC[C@@H]5C(F)(F)F)nc43)cn2)C[C@H](C)O1` [Compound E92, [4′-(cyclobutylamino)-7′-{2-[(2R,6S)-2,6-dimethylmorpholin-4-yl]pyrimidin-5-yl}-6′-oxo-6′,7′-dihydrospiro[cyclopentane-1,5′-pyrrolo[2,3-d]pyrimidin]-2′-yl]methyl (2R)-2-(trifluoromethyl)pyrrolidine-1-carboximidate], 6.30 to 7.00.
For the compound `CNc1nc(COC(=N)N2CCC[C@@H]2C(F)(F)F)nc2c1C1(CCCC1)C(=O)N2c1cnc(C2=CCOCC2)nc1` [Compound E95], the pIC50 under setting [1] is greater than 7.00.
Still for that read-out and setting: with `CNc1nc(COC(=N)N2CCC[C@@H]2C(F)(F)F)nc2c1C1(CCCC1)C(=O)N2c1cnc(N2CC3CC2CO3)nc1` (stereo partly drawn) [Compound E96, (7′-(2-(2-oxa-5-azabicyclo[2.2.1]heptan-5-yl)pyrimidin-5-yl)-4′-(methylamino)-6′-oxo-6′,7′-dihydrospiro[cyclopentane-1,5′-pyrrolo[2,3-d]pyrimidin]-2′-yl)methyl (2R)-2-(trifluoromethyl)pyrrolidine-1-carbimidate] the figure was 6.30 to 7.00; with `N=C(OCc1nc(N)c2c(n1)N(c1cnc(N3CC4CC3CO4)nc1)C(=O)C21CCCC1)N1CCC[C@@H]1C(F)(F)F` (some centres unmarked) [Compound E98], 5.30 to 6.30.
As for `CC1(C)CC(c2ncc(N3C(=O)C4(CCCC4)c4c(N)nc(COC(=N)N5CCOCC5C(F)(F)F)nc43)cn2)CC(C)(C)O1` (centres unmarked) [Compound E101], the pIC50 under setting [1] was 5.30 to 6.30.
Consider `CNc1nc(COC(=N)N2CCC[C@@H]2C(F)(F)F)nc2c1C1(CCCC1)C(=O)N2c1cnc(C2CC(C)(C)OC(C)(C)C2)nc1` [Compound E102], for which the pIC50 under setting [1] is 6.30 to 7.00.
As for `C[C@@H]1CN(c2ncc(N3C(=O)C4(CCCC4)c4c(N)nc(COC(=N)N5CCOC[C@H]5C(F)(F)F)nc43)cn2)C[C@H](C)O1` [Compound E104A], the pIC50 under setting [1] was 6.30 to 7.00.
Regarding `C[C@@H]1CN(c2ncc(N3C(=O)C4(CCCC4)c4c(N)nc(COC(=N)N5CCOC[C@@H]5C(F)(F)F)nc43)cn2)C[C@H](C)O1` [Compound E104B], the pIC50 under setting [1] is greater than 7.00.
Turning to `C[C@@H]1CN(c2ncc(N3C(=O)C(C)(C)c4c(N)nc(COC(=N)N5CCC[C@@H]5C(F)(F)F)nc43)cn2)C[C@H](C)O1` [Compound E105], the pIC50 under setting [1] was greater than 7.00.
The same measure, in the same setting: with `CNc1nc(COC(=N)N2CCC[C@@H]2C(F)(F)F)nc2c1C(C)(C)CN2c1ccc(N2CCOCC2)cc1OC` [Compound E106] the figure was greater than 7.00.
